In ChEMBL document CHEMBL5108059, “Discovery of 2-Methyl-2-(4-(2-methyl-8-(1H-pyrrolo[2,3-b]pyridin-6-yl)-1H-naphtho[1,2-d]imidazol-1-yl)phenyl)propanenitrile as a Novel PI3K/mTOR Inhibitor with Enhanced Antitumor Efficacy In Vitro and In Vivo” (J Med Chem, 2022):

Key:
[1] = test system: HT-29; assay: Antiproliferative activity against human HT-29 cells with PIK3CA mutation assessed as inhibition of cell growth incubated for 48 to 72 hrs by MTT assay; format: functional, cell-based
[2] = test system: HCT-15; assay: Antiproliferative activity against human HCT-15 cells with PIK3CA mutation assessed as inhibition of cell growth incubated for 48 to 72 hrs by MTT assay; format: functional, cell-based
[3] = test system: NCI-H3122; assay: Antiproliferative activity against human NCI-H3122 cells assessed as inhibition of cell growth incubated for 48 to 72 hrs by MTT assay; format: functional, cell-based
[4] = test system: HeLa; assay: Antiproliferative activity against human HeLa cells assessed as inhibition of cell growth incubated for 48 to 72 hrs by MTT assay; format: functional, cell-based
[5] = test system: SW-620; assay: Antiproliferative activity against human SW620 cells assessed as inhibition of cell growth incubated for 48 to 72 hrs by MTT assay; format: functional, cell-based
[6] = test system: NCI-H446; assay: Antiproliferative activity against PTEN-null human NCI-H446 cells assessed as inhibition of cell growth incubated for 48 to 72 hrs by MTT assay; format: functional, cell-based
[7] = test system: HeLa; assay: Antitumor activity against human HeLa cells xenografted in BALB/c nude mouse assessed as tumor growth inhibition at 30 mg/kg, IG administered daily for 30 days and measured every 2 days relative to control; format: functional; conditions: po, 720 h, time 30 day, read-out: TGI
[8] = test system: SW-620; assay: Antitumor activity against human SW620 cells xenografted in BALB/c nude mouse assessed as tumor growth inhibition at 30 mg/kg, IG administered daily for 30 days and measured every 2 days relative to control; format: functional; conditions: SW-620, po, 720 h, time 30 day, read-out: TGI
[9] = target: Serine/threonine-protein kinase mTOR (Homo sapiens, UniProt P42345); assay: Inhibition of N-terminal FLAG-tagged recombinant human mTOR (1362 to end residue) using ULight-4EBP1 peptide as substrate incubated for 30 mins in presence of ATP by Lance ultra assay
[10] = target: Phosphatidylinositol 4,5-bisphosphate 3-kinase catalytic subunit alpha isoform (Homo sapiens, UniProt P42336); assay: Inhibition of PI3Kalpha (unknown origin) using PIP2 as substrate incubated for 1 hr in presence of ATP by Kinase Glo luminescence assay
Sequence of Phosphatidylinositol 4,5-bisphosphate 3-kinase catalytic subunit alpha isoform (P42336 whole entry, canonical isoform): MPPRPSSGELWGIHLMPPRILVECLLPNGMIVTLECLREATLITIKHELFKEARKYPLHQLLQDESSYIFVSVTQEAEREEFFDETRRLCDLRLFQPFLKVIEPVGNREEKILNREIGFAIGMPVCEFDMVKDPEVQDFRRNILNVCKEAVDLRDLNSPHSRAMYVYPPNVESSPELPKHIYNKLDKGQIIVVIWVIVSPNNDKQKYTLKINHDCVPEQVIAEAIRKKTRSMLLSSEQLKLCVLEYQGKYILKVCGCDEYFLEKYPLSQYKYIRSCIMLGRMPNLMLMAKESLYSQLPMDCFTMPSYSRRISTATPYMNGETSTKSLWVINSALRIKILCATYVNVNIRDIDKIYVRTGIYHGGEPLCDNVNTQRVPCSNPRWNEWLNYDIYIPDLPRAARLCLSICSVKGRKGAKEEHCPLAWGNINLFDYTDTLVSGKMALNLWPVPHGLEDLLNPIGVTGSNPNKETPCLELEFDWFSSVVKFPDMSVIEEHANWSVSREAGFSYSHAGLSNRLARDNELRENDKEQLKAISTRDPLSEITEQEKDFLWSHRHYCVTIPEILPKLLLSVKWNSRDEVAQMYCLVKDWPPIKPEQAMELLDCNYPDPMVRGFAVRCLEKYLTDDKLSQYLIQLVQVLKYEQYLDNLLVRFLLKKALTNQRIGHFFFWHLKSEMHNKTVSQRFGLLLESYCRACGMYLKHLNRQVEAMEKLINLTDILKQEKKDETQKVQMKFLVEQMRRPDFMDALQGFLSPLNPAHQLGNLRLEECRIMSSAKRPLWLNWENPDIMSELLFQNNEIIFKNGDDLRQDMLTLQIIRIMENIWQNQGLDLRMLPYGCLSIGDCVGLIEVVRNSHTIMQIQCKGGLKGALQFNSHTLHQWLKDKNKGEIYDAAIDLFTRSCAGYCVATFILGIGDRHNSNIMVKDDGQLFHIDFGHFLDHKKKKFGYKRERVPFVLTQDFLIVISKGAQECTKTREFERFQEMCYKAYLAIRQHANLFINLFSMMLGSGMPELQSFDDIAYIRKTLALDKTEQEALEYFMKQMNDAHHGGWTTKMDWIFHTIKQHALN

[11] = target: T1, Phosphatidylinositol 4,5-bisphosphate 3-kinase catalytic subunit delta isoform (Homo sapiens, UniProt O00329); assay: Inhibition of PI3Kdelta (unknown origin) using PIP2 as substrate incubated for 2 hrs in presence of ATP by Kinase Glo luminescence assay
T1 sequence (O00329 whole entry): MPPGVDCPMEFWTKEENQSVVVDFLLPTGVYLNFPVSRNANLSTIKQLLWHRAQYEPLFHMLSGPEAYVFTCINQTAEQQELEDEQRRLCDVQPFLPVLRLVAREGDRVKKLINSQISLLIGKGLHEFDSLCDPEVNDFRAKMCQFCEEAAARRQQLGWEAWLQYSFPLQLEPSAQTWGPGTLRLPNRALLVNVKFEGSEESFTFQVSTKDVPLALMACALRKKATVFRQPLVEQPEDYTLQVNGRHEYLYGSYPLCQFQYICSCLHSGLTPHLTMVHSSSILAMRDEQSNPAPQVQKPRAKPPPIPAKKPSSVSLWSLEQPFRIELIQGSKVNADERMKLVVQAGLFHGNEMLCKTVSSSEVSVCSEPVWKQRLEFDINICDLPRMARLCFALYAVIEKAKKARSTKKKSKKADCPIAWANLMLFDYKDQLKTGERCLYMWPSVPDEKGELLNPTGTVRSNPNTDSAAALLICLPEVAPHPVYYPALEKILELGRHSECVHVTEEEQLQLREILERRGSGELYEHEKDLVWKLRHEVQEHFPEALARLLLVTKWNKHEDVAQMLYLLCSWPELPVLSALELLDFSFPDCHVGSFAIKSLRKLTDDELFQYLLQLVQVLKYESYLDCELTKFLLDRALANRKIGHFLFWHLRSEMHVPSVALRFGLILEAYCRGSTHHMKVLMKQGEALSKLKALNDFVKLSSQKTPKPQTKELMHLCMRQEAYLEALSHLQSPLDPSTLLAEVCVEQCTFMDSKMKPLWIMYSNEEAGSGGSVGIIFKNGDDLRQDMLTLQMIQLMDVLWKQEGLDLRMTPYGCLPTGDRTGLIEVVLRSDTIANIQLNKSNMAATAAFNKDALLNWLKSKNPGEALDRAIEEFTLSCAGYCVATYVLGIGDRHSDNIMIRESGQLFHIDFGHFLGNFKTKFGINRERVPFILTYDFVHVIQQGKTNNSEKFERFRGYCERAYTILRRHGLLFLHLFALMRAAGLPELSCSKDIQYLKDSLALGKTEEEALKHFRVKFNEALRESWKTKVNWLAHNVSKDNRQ

SMILES	IC50 [1] [nM]	IC50 [2] [nM]	IC50 [3] [nM]	IC50 [4] [nM]	IC50 [5] [nM]	IC50 [6] [nM]	IC50 [9] [nM]	IC50 [10] [nM]	IC50 [11] [nM]	inhibition in vivo at 30 mg/kg [7] [%]	inhibition in vivo at 30 mg/kg [8] [%]
Cn1c(=O)n(-c2ccc(C(C)(C)C#N)cc2)c2c3cc(-c4cnc5ccccc5c4)ccc3ncc21 [DACTOLISIB]	1010	910	960	1090	870	870				53.3	51.7
Cc1nc2cnc3ccc(-c4cnc5[nH]ccc5c4)cc3c2n1[C@H](C)c1ccc(F)cc1	1380	1170	2050	3940	1740	3970	90.2	151	184		
Cc1nc2cnc3ccc(-c4cnc5[nH]ccc5c4)cc3c2n1-c1ccc(C(C)(C)C#N)cc1	310	290	370	190	230	1080	29.1	12.5	21.7		
Cc1nc2cnc3ccc(-c4cnc5[nH]ccc5c4)cc3c2n1-c1ccc(F)cc1	1250	1130	2050	1820	1280	1650	38.7	21.5	28.9		

The remaining molecules from weak to strong by IC50 [1], led by results:

IC50 [1] [nM]	IC50 [2] [nM]	IC50 [3] [nM]	IC50 [4] [nM]	IC50 [5] [nM]	IC50 [6] [nM]	IC50 [9] [nM]	IC50 [10] [nM]	IC50 [11] [nM]	SMILES	inhibition in vivo at 30 mg/kg [7] [%]	inhibition in vivo at 30 mg/kg [8] [%]
2310	1940	5610	3640	2910	4510	73.9	41	32.3	Cc1nc2cnc3ccc(-c4cnc5[nH]ccc5c4)cc3c2n1-c1ccccc1		
1980	2320	8750	3130	2150	6970	121	68.1	90.3	Cc1nc2cnc3ccc(-c4ccc(N)cc4)cc3c2n1-c1ccc(F)cc1		
1210	2020	4750	1710	2130	3610	93.8	51.3	40.7	Cc1nc2cnc3ccc(-c4ccc(N)nc4)cc3c2n1-c1ccc(F)cc1		
910	830	670	510	1370	1650	45.2	19.3	28.6	Cc1nc2cnc3cc(F)c(-c4cnc5[nH]ccc5c4)cc3c2n1-c1ccc(C(C)(C)C#N)cc1		
820	750	1330	960	1870	1510	67.2	26.3	17.2	COc1ccc(-n2c(C)nc3cnc4ccc(-c5cnc6[nH]ccc6c5)cc4c32)cc1		
